According to PMC8003314, “Design and Synthesis of Ranitidine Analogs as Multi-Target Directed Ligands for the Treatment of Alzheimer’s Disease” (International Journal of Molecular Sciences, 2021):

Key:
Aβ40 = target: T1, Aβ40 (Homo sapiens, UniProt P05067); assay: ThT fluorescence assay of Aβ monomer aggregation; format: biochemical; details: 40 μM Aβ40 monomer, mean ± SEM, n = 3–5, N.E. = not significantly different from control samples; for Plateau Reduction (% Inhibition) / Lag Time Extension (Fold Increase): 100 µM compound; for Plateau Reduction (% Inhibition) / inhibition at 100 µM: 40 mM Tris-HCl pH 8.0, 25 °C; for Lag Time Extension (Fold Increase): T2/T1 relative to control; for inhibition at 100 µM: pH 8, 100 µM compound, read-out: Plateau Reduction (% Inhibition)
T1 construct: purchased AnaSpec; host or cells: synthetic peptide
Excerpt: Synthetic Aβ40 was used in this study because it is the predominant isoform found in amyloid plaques isolated from AD brain [12]. Thioflavin T (ThT), a fluorescent compound that binds specifically to amyloid β-sheet structures to yield a shifted, enhanced florescence, was used to monitor the appearance of aggregates. […] The inhibitory effect of compounds on Aβ aggregation was evidenced as a reduction in the equilibrium plateau and/or an increase in the lag time. The plateau reduction (Figure 2A), which indicates inhibition that reduces the extent of Aβ aggregation, was defined as the percentage decrease of the plateau ThT fluorescence in the presence of inhibitor, P2, compared to the plateau ThT fluorescence in the absence of inhibitor, P1.
Lyophilized Aβ peptide was reconstituted in 50 mM NaOH at a concentration of 2 mg/mL and purified via size-exclusion chromatography (SEC) on a Superdex 75 HR 10/300 column (Cytiva, Marlborough, MA) using a running buffer of 40 mM Tris-HCl (pH 8.0). Bovine serum albumin (BSA) (2 mg/mL) was employed as a pretreatment to reduce nonspecific Aβ interaction with the dextran matrix of the column. […] The concentrations of eluted Aβ monomer fractions were determined with a calculated extinction coefficient of 1450 M^−1 cm^−1 at 276 nm. Purified Aβ monomer samples were used fresh or stored at 4 ℃ for up to 4 days.
All compounds were dissolved in DMSO at 5 mM and stored at −20 °C. […] DMSO (2% v/v) was added to control reactions run in parallel.
SEC-purified Aβ monomer was diluted to 40 μM in 40 mM Tris-HCl (pH 8.0) and agitated (vortex, 800 rpm, 25 °C) without (control) or with 100 µM ranitidine analogs. Periodically, a 20-μL aliquot was removed and combined with 140 μL of 10 μM ThT. Fluorescence (excitation = 450 nm, emission = 470–500 nm) was evaluated using a Perkin-Elmer LS-45 luminescence spectrometer (Waltham, MA, USA). Fluorescence values were calculated as the integrated area under the emission curve with baseline (ThT alone) subtraction and plotted vs. aggregation time. Each compound was evaluated using at least three independent experiments.
Figure 2 Assessment of the inhibition of Aβ monomer aggregation. Monomer aggregation assays were conducted in the absence (solid line, control) and presence (dotted line, experimental) of the ranitidine analogs, and aggregate formation was monitored as an increase in the ThT fluorescence. (A) Inhibition that decreases the quantity of aggregates formed at equilibrium is reported as the plateau reduction, the percentage decrease of the plateau ThT fluorescence in the presence of inhibitor, P2, compared to the plateau for the control, P1. (B) Inhibition that extends the time to aggregate formation is reported as the lag time extension. It is evidenced as an increase in the experimental lag time, T2, relative to the lag time for the control, T1, and evaluated as a fold increase relative to the control, T2/T1.

AChE = system: AChE; design: method as in PMID 27769620; details: previous study; cited from earlier work
electric eel AChE = target: T2, electric eel AChE (Electrophorus electricus, UniProt O42275); assay: AChE inhibition assay (modified Ellman method); format: biochemical; details: 0.1 M sodium phosphate pH 8.0, 37 °C, 200 µM acetylthiocholine
T2 construct: purchased Sigma (Sigma-Aldrich, St. Louis, MO, USA)
Experimental: Aβ40 was purchased from AnaSpec (AnaSpec, Fremont, CA, USA) and stored in lyophilized form at −20 °C. Thioflavin T (ThT) and electric eel AChE were obtained from Sigma (Sigma-Aldrich, St. Louis, MO, USA). Bovine serum albumin (BSA) and dimethyl sulfoxide (DMSO) were purchased from EMD Biosciences (EMD Biosciences, San Diego, CA, USA). Tris-HCl (pH 8.0) was prepared using Tris base, purchased from Promega (Promega, Madison, WI, USA) and Tris hydrochloride, purchased from EMD (EMD, Burlington, MA, USA).
The AChE inhibition assay was modified based on the method of Ellman et al. in a 24-well plate format at 37 °C. Assays were performed in 0.1 M sodium phosphate (pH 8.0), containing 200 µM acetylthiocholine, 100 µM dithiobisnitrobenzoic acid, and 0.005 units of AChE in a final volume of 3000 µL. The reaction was initiated by the addition of acetylthiocholine, and the formation of a product was monitored by measuring absorbance at 412 nm. The IC50 values were determined by nonlinear regression analysis of the concentration–response curves generated. Each compound was evaluated using at least three independent experiments.

T1 sequence (P05067 672-711 limits assumed): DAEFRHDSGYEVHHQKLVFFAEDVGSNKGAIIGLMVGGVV
T2 sequence (O42275 24-633): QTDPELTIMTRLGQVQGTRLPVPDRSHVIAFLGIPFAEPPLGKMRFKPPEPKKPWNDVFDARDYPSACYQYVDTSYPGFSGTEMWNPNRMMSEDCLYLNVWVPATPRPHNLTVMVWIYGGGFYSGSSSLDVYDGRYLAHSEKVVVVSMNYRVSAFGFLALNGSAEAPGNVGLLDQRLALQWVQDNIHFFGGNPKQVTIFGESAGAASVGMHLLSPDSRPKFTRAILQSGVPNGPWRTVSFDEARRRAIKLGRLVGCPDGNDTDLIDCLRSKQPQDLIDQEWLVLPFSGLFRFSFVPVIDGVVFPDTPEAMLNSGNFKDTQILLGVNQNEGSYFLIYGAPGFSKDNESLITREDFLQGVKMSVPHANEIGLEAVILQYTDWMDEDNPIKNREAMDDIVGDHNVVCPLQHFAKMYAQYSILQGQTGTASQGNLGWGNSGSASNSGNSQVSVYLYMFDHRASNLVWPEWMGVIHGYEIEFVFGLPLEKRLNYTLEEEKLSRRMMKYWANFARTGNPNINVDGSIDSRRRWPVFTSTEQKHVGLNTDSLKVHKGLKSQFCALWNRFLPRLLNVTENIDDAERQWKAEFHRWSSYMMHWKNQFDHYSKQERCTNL

| Compound | Plateau Reduction (% Inhibition) (Aβ40) | Lag Time Extension (Fold Increase) (Aβ40) | inhibition at 100 µM (Aβ40) | IC50 (AChE) | IC50 (electric eel AChE) |
| --- | --- | --- | --- | --- | --- |
| 2-(2-(Methylthio)ethyl)-5-nitro-1H-benzo[de]isoquinoline-1,3(2H)-dione [Compound 7] | abrogated and N.E. | N.E. | – | – | – |
| CC1CC(=O)N(CCSCc2ccc(CN(C)C)o2)C1=O (centres unmarked) [Compound 1] | N.E. | 2.8 ± 0.6 fold | – | – | – |
| CN(C)Cc1ccc(CSCCN2C(=O)c3ccccc3C2=O)o1 [Compound 2] | N.E. | lost and N.E. | – | – | – |
| CN(C)Cc1ccc(CSCCN2C(=O)c3cccc4cccc(c34)C2=O)o1 [Compound 3] | – | lost and N.E. | 60.9% | – | – |
| CN(C)Cc1ccc(CSCCN2C(=O)c3ccc([N+](=O)[O-])cc3C2=O)o1 [Compound 5] | – | 2.0 ± 0.6 fold | 39.1% | – | – |
| CN(C)Cc1ccc(CSCCN2C(=O)c3cccc4cc([N+](=O)[O-])cc(c34)C2=O)o1 [Compound 6] | – | N.E. | 71.8% | 150 nM | – |
| CN(C)Cc1ccc(CSCCN2C(=O)c3cccc4c(Cl)ccc(c34)C2=O)o1 [Compound 8, 6-Chloro-2-(2-(((5-((dimethylamino)methyl)furan-2-yl)methyl)thio)ethyl)-1H-benzo [de]isoquinoline-1,3(2H)-dione] | – | N.E. | 65.8% | – | 1.23 µM |
| CN(C)Cc1nc(CSCCN2C(=O)c3cccc4cccc(c34)C2=O)cs1 [Compound 9, 2-(2-((2-((Dimethylamino)methyl)thiazol-4-yl)methylthio)ethyl)-1H-benzo[de]iso quinoline-1,3(2H)-dione] | 54.2% ± 5.1% | N.E. | 61.4% | – | 2.02 µM |
| CN(C)Cc1nc(CSCCN2C(=O)c3cccc4cc([N+](=O)[O-])cc(c34)C2=O)cs1 [Compound 10, 2-(2-(((2-((Dimethylamino)methyl)thiazol-4-yl)methyl)thio)ethyl)-5-nitro-1H-benzo[de]isoquinoline-1,3(2H)-dione] | 61.4% ± 19.7% | N.E. | 54.2% | – | 0.52 µM |
| O=C1c2cccc3cc([N+](=O)[O-])cc(c23)C(=O)N1CCc1ccco1 [Compound 11, 2-(2-(furan-2-yl)ethyl)-5-nitro-1H-benzo[de]isoquinoline-1,3(2H)-dione] | – | 1.76 ± 0.61 fold | 60.3% | – | – |
| CN(C)Cc1ccc(CCN2C(=O)c3cccc4cc([N+](=O)[O-])cc(c34)C2=O)o1 [Compound 12, 2-(2-(5-((Dimethylamino)methyl)furan-2-yl)ethyl)-5-nitro-1H-benzo[de]isoquino line-1,3(2H)-dione] | – | 2.25 ± 0.25 fold | 65.6% | – | 0.36 µM |
| CN(C)Cc1ccc(C[S+]([O-])CCN2C(=O)c3cccc4cc([N+](=O)[O-])cc(c34)C2=O)o1 (centres unmarked) [Compound 13, 2-(2-(((5-((Dimethylamino)methyl)furan-2-yl)methyl)sulfinyl)ethyl)-5-nitro-1H-benzo[de]isoquinoline-1,3(2H)-dione] | – | N.E. | 26.8% | – | – |
| CN(C)Cc1ccc(C[S+]([O-])CCN2C(=O)c3cccc4cccc(c34)C2=O)o1 (centres unmarked) [Compound 14, 2-(2-(((5-((Dimethylamino)methyl)furan-2-yl)methyl)sulfinyl)ethyl)-1H-benzo[de] isoquinoline-1,3(2H)-dione] | – | N.E. | 20.1% | – | – |
| C[N+](C)([O-])Cc1ccc(CS(=O)(=O)CCN2C(=O)c3cccc4cc([N+](=O)[O-])cc(c34)C2=O)o1 [Compound 15, N,N-Dimethyl-1-(5-(((2-(5-nitro-1,3-dioxo-1H-benzo[de]isoquinolin-2(3H)-yl)ethyl)sulfonyl)methyl)furan-2-yl)methanamine oxide] | – | N.E. | 20.4% | – | – |
